# The source made the active and inactive calls.
# Legend:
# [1] = molecular target: T1, ORF 73 (Human herpesvirus 8, UniProt O40947); assay: KSHV LANA DNA-binding disruption – biochemical, fluorescence polarization, cherry-picked samples, dose response (AID 504725); set-up: species or system Human gammaherpesvirus 8;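 also: fluorescence polarization of a labeled DNA duplex reporting LANA DNA binding; potency is for inhibitors that block LANA binding to the DNA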
# T1 sequence (O40947 whole entry): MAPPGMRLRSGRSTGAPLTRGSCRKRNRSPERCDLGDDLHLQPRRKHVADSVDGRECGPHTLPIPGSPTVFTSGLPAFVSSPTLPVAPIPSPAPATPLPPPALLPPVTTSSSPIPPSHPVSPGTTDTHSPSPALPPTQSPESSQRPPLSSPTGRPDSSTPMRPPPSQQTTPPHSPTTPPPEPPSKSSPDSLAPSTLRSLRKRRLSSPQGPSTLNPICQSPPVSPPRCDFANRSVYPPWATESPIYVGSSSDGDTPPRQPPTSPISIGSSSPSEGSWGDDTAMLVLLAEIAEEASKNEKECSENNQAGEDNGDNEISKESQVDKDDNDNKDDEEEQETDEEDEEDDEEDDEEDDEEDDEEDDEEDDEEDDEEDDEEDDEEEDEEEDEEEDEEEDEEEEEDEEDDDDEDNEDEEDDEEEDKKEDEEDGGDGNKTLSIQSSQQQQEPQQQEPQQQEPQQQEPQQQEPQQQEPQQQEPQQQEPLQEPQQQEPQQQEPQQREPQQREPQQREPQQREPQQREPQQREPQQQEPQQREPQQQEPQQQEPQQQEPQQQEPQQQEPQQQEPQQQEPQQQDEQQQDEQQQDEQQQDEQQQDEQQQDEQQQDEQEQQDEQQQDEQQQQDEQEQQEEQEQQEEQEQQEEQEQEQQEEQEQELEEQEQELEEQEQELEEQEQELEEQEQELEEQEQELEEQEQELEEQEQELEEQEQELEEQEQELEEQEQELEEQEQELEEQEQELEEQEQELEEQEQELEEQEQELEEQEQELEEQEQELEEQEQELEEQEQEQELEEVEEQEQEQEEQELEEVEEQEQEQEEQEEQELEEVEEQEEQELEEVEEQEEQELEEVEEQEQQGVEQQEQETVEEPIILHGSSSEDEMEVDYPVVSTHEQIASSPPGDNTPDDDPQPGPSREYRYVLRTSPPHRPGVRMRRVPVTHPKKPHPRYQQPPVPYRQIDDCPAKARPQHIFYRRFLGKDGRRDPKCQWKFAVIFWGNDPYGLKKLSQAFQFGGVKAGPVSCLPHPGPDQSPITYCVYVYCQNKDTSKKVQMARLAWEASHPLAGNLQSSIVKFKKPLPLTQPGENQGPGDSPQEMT
# [2] = molecular target: T2, Aminopeptidase N (Plasmodium falciparum FcB1/Columbia, UniProt O96935); assay: malaria alanyl aminopeptidase activity blockers – biochemical, fluorogenic H-Leu-NHMec substrate, 1536-well (AID 1445); set-up: species or system Plasmodium falciparum 3D7, 3D7
# T2 sequence (O96935 whole entry): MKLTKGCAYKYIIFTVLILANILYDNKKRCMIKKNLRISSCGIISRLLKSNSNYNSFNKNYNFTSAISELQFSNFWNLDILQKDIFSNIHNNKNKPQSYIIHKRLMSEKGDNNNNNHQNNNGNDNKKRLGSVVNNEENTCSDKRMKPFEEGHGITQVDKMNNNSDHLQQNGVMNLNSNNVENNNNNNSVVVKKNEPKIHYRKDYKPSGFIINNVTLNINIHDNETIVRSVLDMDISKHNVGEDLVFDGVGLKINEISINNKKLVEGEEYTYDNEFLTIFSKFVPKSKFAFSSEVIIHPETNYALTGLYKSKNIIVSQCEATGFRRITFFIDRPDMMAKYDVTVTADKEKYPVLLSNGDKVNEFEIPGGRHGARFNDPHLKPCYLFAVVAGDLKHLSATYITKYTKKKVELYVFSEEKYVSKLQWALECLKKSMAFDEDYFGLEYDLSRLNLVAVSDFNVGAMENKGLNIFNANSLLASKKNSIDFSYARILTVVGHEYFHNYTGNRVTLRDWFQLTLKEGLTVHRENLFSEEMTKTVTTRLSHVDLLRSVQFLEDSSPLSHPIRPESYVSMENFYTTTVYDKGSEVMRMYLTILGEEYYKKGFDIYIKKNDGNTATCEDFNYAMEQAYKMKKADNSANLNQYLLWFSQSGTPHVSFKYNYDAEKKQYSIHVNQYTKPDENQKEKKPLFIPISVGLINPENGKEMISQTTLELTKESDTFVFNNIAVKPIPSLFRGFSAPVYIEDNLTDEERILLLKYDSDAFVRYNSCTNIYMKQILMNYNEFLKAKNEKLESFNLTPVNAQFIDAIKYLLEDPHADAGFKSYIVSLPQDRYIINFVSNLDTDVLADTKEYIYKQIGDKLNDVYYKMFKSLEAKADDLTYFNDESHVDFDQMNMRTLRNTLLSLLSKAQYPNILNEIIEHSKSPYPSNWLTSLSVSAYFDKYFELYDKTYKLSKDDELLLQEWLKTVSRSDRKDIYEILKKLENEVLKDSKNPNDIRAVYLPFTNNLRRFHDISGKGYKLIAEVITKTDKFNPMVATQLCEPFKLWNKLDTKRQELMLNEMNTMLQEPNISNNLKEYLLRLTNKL
# [3] = MIN6 cell viability loss – mouse insulinoma, cytotoxicity control, dose response (AID 2122); assay type: functional;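 also: confirmatory high-throughput counterscreen run to flag cytotoxic compounds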
# [4] = molecular target: T3, Histone-lysine N-methyltransferase NSD2 (Homo sapiens, UniProt O96028); assay type: biochemical
# T3 sequence (O96028 whole entry): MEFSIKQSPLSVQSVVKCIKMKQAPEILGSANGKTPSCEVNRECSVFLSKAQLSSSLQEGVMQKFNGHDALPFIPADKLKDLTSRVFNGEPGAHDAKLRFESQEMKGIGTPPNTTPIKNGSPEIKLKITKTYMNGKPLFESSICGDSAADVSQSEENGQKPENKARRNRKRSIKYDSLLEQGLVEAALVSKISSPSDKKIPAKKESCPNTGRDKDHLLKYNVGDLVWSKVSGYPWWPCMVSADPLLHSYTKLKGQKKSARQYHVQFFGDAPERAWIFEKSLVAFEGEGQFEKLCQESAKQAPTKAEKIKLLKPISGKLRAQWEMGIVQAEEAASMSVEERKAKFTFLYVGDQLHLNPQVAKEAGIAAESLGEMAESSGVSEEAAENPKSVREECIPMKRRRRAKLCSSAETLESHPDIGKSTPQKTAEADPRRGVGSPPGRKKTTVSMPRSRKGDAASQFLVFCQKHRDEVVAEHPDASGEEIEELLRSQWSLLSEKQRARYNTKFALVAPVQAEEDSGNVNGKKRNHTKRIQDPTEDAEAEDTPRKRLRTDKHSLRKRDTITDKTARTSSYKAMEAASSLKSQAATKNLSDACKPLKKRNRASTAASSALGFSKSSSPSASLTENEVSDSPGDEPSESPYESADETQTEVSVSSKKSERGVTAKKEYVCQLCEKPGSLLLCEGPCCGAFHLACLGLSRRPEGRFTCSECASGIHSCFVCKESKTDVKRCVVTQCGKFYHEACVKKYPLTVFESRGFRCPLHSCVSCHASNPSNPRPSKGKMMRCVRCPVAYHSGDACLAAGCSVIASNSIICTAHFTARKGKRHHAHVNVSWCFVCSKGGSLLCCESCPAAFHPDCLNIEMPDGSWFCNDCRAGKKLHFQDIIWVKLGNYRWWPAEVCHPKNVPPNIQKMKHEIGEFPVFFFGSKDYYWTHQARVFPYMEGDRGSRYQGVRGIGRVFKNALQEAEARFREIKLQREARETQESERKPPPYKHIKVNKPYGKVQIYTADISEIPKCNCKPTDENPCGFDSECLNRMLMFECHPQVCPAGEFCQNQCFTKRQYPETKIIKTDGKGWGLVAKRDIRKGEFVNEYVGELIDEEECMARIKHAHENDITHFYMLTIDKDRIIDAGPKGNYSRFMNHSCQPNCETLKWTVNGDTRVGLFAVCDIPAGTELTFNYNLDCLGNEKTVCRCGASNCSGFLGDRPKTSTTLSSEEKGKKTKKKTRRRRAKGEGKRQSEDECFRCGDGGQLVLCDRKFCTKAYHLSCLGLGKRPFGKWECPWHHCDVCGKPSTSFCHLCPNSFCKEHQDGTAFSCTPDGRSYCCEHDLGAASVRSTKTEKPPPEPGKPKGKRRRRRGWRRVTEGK
# [5] = system: INS1; assay: INS-1E survival protection against cytokine death – cell-based, luminescence, retest, dose response (AID 449756); assay type: functional; conditions: Rattus norvegicus;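 also: cell death triggered by IL-1 beta plus TNF-alpha plus IFN-gamma mixture; protective hits raise ATP signal compared with cytokine alone wells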
# [6] = decrease of insulin promoter-GFP reporter – imaging, high-content screening, mouse beta cells (AID 1628); assay type: functional; conditions: MIN6
# [7] = molecular target: T4, Acyl-homoserine lactone acylase PvdQ (Pseudomonas aeruginosa (strain LESB58), UniProt Q9I194); assay: PvdQ acylase enzyme activity blockers – biochemical, fluorescence, plate reader and imaging, cherry-picks, dose response (AID 493231)
# T4 sequence (Q9I194 whole entry): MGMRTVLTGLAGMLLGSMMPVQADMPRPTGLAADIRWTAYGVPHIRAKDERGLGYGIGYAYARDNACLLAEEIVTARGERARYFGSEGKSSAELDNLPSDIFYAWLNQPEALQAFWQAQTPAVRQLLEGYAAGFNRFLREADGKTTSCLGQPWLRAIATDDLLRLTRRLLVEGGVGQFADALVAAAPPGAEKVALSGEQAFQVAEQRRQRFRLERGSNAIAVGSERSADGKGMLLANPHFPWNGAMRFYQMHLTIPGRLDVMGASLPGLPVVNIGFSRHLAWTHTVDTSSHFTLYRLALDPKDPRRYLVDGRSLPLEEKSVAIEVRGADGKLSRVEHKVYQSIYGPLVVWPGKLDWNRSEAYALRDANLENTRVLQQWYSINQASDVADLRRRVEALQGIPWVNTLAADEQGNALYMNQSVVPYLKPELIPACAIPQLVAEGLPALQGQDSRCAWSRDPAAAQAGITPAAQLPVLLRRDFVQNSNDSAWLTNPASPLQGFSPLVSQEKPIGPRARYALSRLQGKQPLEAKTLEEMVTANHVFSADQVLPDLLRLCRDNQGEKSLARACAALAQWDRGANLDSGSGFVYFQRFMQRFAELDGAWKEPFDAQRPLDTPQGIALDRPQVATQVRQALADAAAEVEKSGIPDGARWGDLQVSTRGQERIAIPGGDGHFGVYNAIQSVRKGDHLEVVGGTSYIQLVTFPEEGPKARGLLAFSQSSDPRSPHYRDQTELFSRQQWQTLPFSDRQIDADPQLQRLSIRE
# [8] = system: Vero; assay: viability of Vero cells under compound – cytotoxicity control for flavivirus capping enzyme inhibitors (AID 588742); assay type: functional; conditions: Chlorocebus sabaeus
# [9] = molecular target: T5, Endoribonuclease toxin MazF (Escherichia coli K-12, UniProt P0AE70); assay: activation of MazEF endoribonuclease cleavage – biochemical, fluorescence, single-stranded RNA substrate, uHTS hits, dose response (AID 588481); assay type: functional
# T5 sequence (P0AE70 whole entry): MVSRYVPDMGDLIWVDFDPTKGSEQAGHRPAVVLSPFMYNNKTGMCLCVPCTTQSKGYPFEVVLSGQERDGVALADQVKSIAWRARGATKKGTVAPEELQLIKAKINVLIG
# [10] = molecular target: T5, Endoribonuclease toxin MazF; assay: substrate-only fluorescence increase artefacts – biochemical, single-stranded RNase substrate, counter-screen for MazEF activator project, dose response (AID 588502); assay type: functional
# [11] = Trypanosoma cruzi growth suppression in host cells – NIH3T3 host cells, beta-gal luminescence, confirmation (AID 2044); assay type: functional, cell-based;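 also: intracellular parasites grown in NIH/3T3 mouse fibroblasts as host cells; luminescent beta-galactosidase reporter signal from transgenic T. cruzi replicating inside host cells; inhibitors lower the luminescence signal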
# [12] = system: HEK293; assay: EBV LMP1 TES2 canonical NF-kB signalling blockers – cell-based, HEK293, luciferase, cherry-pick, dose response (AID 588343); assay type: functional; conditions: Homo sapiens
# [13] = NIH3T3 cell viability loss – ATP luminescence, mouse fibroblasts, counter-screen, dose response (AID 2010); assay type: functional, cell-based;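 also: cells exposed to compound for about 90 hours before reading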
# [14] = microbe, parasite or virus in culture; assay type: functional; conditions: Mycobacterium tuberculosis
# [15] = viability of uninfected HEp-2 cells – cell-based, HTS, cytotoxicity control for RSV inhibitor project, dose response (AID 2410); assay type: functional; conditions: human respiratory syncytial virus
structure (smiles),measurement,setting,value
COCCN(CCOC)Cc1c(O)ccc2c1O/C(=C\c1ccco1)C2=O,AC50,[1],11.9 µM (active)
CCOC(=O)N1CCN(C(=O)c2ccc3c(c2)sc2nc(-c4ccccc4)cn23)CC1,IC50,[2],73.4 µM (active)
CN1/C(=C\C(=O)COC(=O)c2ccc(O)c(O)c2)C(C)(C)c2ccccc21,IC50,[3],0.454 µM (active)
same,AC50,[4],> 20 µM (inactive)
same,AC50,[5],6.68 µM (active)
same,IC50,[6],0.784 µM (active)
C=CCOC(=O)c1ccc(-n2cnc(C)n2)nc1,AC50,[7],4.58 µM (active)
C/C(=N\Nc1cc(N2CCOCC2)nc(C)n1)c1cccc([N+](=O)[O-])c1,IC50,[3],3.14 µM (active)
same,IC50,[6],1.98 µM (active)
Cc1cccc(NC(S)=NC(C)(C)CC(C)(C)C)c1,IC50,[3],1.87 µM (active)
same,IC50,[6],1.92 µM (active)
O=C(/C=C/c1ccc2c(c1)OCCO2)c1ccccc1,AC50,[7],29.3 µM (active)
O=C(/C=C/c1cccc([N+](=O)[O-])c1)N1CCN(Cc2ccc3c(c2)OCO3)CC1,IC50,[2],108 µM (active)
COc1ccc(NC(=S)N(CCCN2CCCC2)Cc2cccn2Cc2ccc(Cl)cc2)cc1Cl,IC50,[3],3.27 µM (active)
same,IC50,[6],2.89 µM (active)
Cc1ccc(NC(=O)Nc2cccs2)nc1,IC50,[2],26.4 µM (active)
C=CCn1c(=S)[nH]c2scc(-c3ccc(C)o3)c2c1=O,CC50,[8],37.2 µM (active)
CCOC(=O)CSc1nc2cc(OC)ccc2cc1C#N,EC50,[9],> 99 µM (inactive)
same,EC50,[10],> 99 µM (inactive)
O=[N+]([O-])c1ccc(-c2cccnc2)cc1,AC50,[7],13.1 µM (active)
CCOc1ccc(Nc2ncnc3ccc([N+](=O)[O-])cc23)cc1,AC50,[7],30.8 µM (active)
same,EC50,[11],2.22 µM (active)
same,AC50,[12],8.95 µM (active)
same,EC50,[13],> 60 µM (not active)
Cc1n[nH]c(O)c1C(c1ccc(-c2ccc(Cl)c(Cl)c2)o1)c1c(C)n[nH]c1O,CC50,[14],28.1 µM (active)
same,CC50,[15],15.2 µM (active)
same,CC50,[8],20.8 µM (active)
